Experimental findings from patent publication US5635161A, “Aerosol drug formulations containing vegetable oils” (priority 1995, dated 1997) are described below.

Data set [1] in a line: Visual dispersion quality (physical stability) of MDI formulations in HFA-134a after 24 hours. It counts as physicochemical. More on the design: key: Poor: Phase separation; top phase clear, bottom phase containing solids; Fair: Partial phase separation; cloudiness in the top phase; Good: Grainy appearance; no phase separation; Clear solution. On the procedure: MDI formulations for performance testing were prepared in the following manner: For each test formulation, about 5 mL (or 7.4 grams) of glass beads were placed into a suitable glass aerosol container (vial), along with 100 mg to 250 mg drug and a vegetable oil in the amounts needed to produce the desired final concentrations. All vegetable oils used in the following examples were purchased from Sigma® Chemical Company (St. Louis, Mo., 63178). The vials were crimped shut with valves having delivery values (volumes per spray) of 50 μL, and then charged with 10 mL of HFA-134a propellant. The filled vials were then shaken for 24 hours at about 50 cycles/minute to mill and disperse the drug. […] The formulations were then used in the in vitro or in vivo studys described below.
A determination of the effect of vegetable oils on the physical stability of several MDI formulations prepared with HFA-134a was conducted as follows: A vegetable oil was combined either with (1) leuprolide acetate (Table 2a) or (2) 5-LO inhibitor #1 (Table 2b) in the amounts indicated and placed in appropriate transparent aerosol containers (vials). […] The dispersion quality in each preparation was evaluated visually after 24 hours using the following criteria: […]

Data set [2] can be described thus: Bioavailability / plasma pharmacokinetics after inhalation (MDI) versus i.v. in tracheostomized dogs. The conditions noted are these: dog, in vivo.
Assay in data set [3]: as above
Format: in vivo. The following applies: dog. On the procedure: All quantitative analyses for 5-LO inhibitor #1 formulations were performed by high pressure liquid chromatography (HPLC). The mobile phase composition was 30% v/v tetrahydrofuran in water with 0.128% w/v tetramethylammonium perchlorate and 0.075% v/v trifluoroacetic acid. A Regis Little Champ™ C-18, 4.6×50 mm column was used. The mobile phase flow rate was maintained at 1.0 milliliters/minute (mL/min). Detection wavelength was set at 282 nanometers (nm) and typical injection volumes were between 25 to 50 microliters (μL). Under these conditions, the standard curve for the parent drug was linear between the range of 3 to 75 micrograms/milliliter (μg/mL) (r^2 ≥0.990), with a run time of about 8 minutes.
Using a test preparation containing 25 mg/mL 5-LO inhibitor #1 and 2.5 mg/mL olive oil in HFC-134a propellant, pulmonary absorption and in vivo distribution (i.e. bioavailibility factors) were assessed in four tracheostomized dogs (Marshall Farms, N.Y.) weighing about 10 kilograms (kg) each. Four sprays, delivering 1.25 mg of active 5-LO inhibitor #1/spray, were delivered to the trachea of each dog, resulting in a total drug dose of about 0.5 mg/kg. Blood samples were collected at 0.25, 0.5, 1, 2, 3.5, 5, 7, 9, 12 and 24 hours after dosing and the plasma assayed for drug concentration using the HPLC method described in Example 1A above.

Setting [4] is: inhaled or intranasal, 0.5 mg/kg, Plasma concentration (5-LO Inhibitor Levels).
[5] abbreviates: iv, 0.5 mg/kg, Plasma concentration (5-LO Inhibitor Levels).
Where [6] appears, read: in vivo, inhaled or intranasal, 0.5 mg/kg.
Where [7] appears, read: in vivo, inhaled or intranasal, 0.5 mg/kg, Plasma concentration (5-LO Inhibitor Levels).

Entries after “also recorded” stand apart in the source; their conditions may differ.

On to `CC(C#Cc1ccc(Cc2ccc(F)cc2)s1)N(O)C(N)=O` (stereo not drawn) [5-LO inhibitor #1, N-[3-[5-(4-fluorophenylmethyl)-2-thienyl]-1-methyl-2-propynyl]-N-hydroxyurea], for which the “Dispersion Quality (measured after 24 Hours)” value in data set [1] (Table 2b, 5-LO inhibitor #1 formulations in HFA-134a) is on record as “Poor”. For the same compound, the “duration of drug absorption after dosing” value in data set [2] lay in the range of 6 to 8 h. In addition, the AUC(0-t) at 24 h in data set [2] (inhaled or intranasal, 0.5 mg/kg) was found to be 1600 ± 400 ng·h/mL. Moreover, in data set [2] (inhaled or intranasal, 0.5 mg/kg, Bioavailability (absolute lung bioavailability versus i.v.)), the bioavailability is approximately 64%. In data set [2] (setting [4]), this compound showed a concentration at 2 h of 40 ± 30 ng/mL, a concentration at 3.5 h of 90 ± 60 ng/mL, a concentration at 5 h of 80 ± 60 ng/mL and a concentration at 12 h of 70 ± 40 ng/mL. In data set [2] (iv, 0.5 mg/kg), the area under the curve AUC(0-t) at 24 h stood at 5060 ± 1040 ng·h/mL. Besides, the “Plasma concentration (5-LO Inhibitor Levels)” value in data set [2] (iv, 0.5 mg/kg, 0 min) stood at 0 ng/mL. For the same compound, in data set [2] (iv, 0.5 mg/kg, 0.25 h), the “Plasma concentration (5-LO Inhibitor Levels)” value was 590 ± 50 ng/mL. Moreover, the “Plasma concentration (5-LO Inhibitor Levels)” value in data set [2] (iv, 0.5 mg/kg, 12 h) was found to be 180 ± 60 ng/mL. For the same compound, in data set [2] (setting [5]), the concentration at 0.08 h is 630 ± 60 ng/mL, the concentration at 0.25 h was approximately 600 ng/mL, the concentration at 0.5 h was determined as 600 ± 40 ng/mL and the concentration at 1 h was 520 ± 40 ng/mL. In addition, in data set [2] (setting [5]), the concentration at 2 h worked out at 480 ± 50 ng/mL, the concentration at 4 h is 370 ± 60 ng/mL, the concentration at 6 h stood at 300 ± 50 ng/mL and the concentration at 8 h came out at 230 ± 50 ng/mL. In data set [2] (setting [5]), the concentration at 12 h is approximately 200 ng/mL and the concentration at 24 h was found to be 70 ± 20 ng/mL. For the same compound, in data set [3] (setting [6]), the Cmax is 150 ± 30 ng/mL and the Tmax was found to be 10.4 ± 9.23 h. The “Plasma concentration (5-LO Inhibitor Levels)” value in data set [3] (in vivo, inhaled or intranasal, 0.5 mg/kg, 1 h) amounted to 30 ± 20 ng/mL. In data set [3] (setting [7]), this compound registered a concentration at 0.5 h of 10 ± 10 ng/mL, a concentration at 1 h of 30 ng/mL, a concentration at 7 h of 120 ± 70 ng/mL and a concentration at 9 h of 90 ± 50 ng/mL. Also, the concentration at 24 h in data set [3] (setting [7]) was 50 ± 60 ng/mL. The concentration at 12 h in data set [3] (in vivo, inhaled or intranasal, 0.5 mg/kg, drug levels maintained) is not below 70 ng/mL. Further, in data set [3] (inhalation formulation), the “onset and absorption from the lungs (in words)” value is “fast onset of drug absorption; also recorded: rapid onset and prolonged absorption of drug from the lungs”.

In the case of `CCNC(=O)[C@@H]1CCCN1C(=O)[C@H](CCCNC(=N)N)NC(=O)[C@H](CC(C)C)NC(=O)[C@@H](CC(C)C)NC(=O)[C@H](Cc1ccc(O)cc1)NC(=O)[C@H](CO)NC(=O)[C@H](Cc1c[nH]c2ccccc12)NC(=O)[C@H](Cc1c[nH]cn1)NC(=O)[C@@H]1CCC(=O)N1` [Leuprolide Acetate, leuprolide acetate, reference compound], the “Dispersion Quality (measured after 24 Hours)” value in data set [1] (Table 2a, leuprolide acetate formulations (or excipients alone) in HFA-134a) was “Poor”.

By AUC(0-t) is commonly meant the area under the concentration-time curve up to a stated or last time point. For orientation: bioavailability means the share of a dose that reaches the circulation, judged against a reference dose that is usually intravenous. As usually defined, the Cmax is the maximum level reached in the sampled fluid or tissue. For orientation: Tmax means the time from dosing to the highest level.
